The source made the active and inactive calls. No cut-off for these calls is given here.
Legend:
[1] = system: Escherichia coli; assay: Antibacterial activity against Escherichia coli AS19; type: functional, organism-based
[2] = system: Escherichia coli; assay: Antibacterial activity against Escherichia coli B; type: functional, organism-based

Compound	inhibition [1]	inhibition [2]
Cc1nc(F)sc1CCO	inactive	inactive
OCCc1scnc1C(F)(F)F	inactive	inactive
